# Measured values: patent US20230213527A1, “COMPOSITIONS AND METHODS FOR POLYPEPTIDE ANALYSIS” (Quantum-Si Incorporated, priority 2021, published 2023)
# Where “and” joins values, the source holds several entries; their conditions need not be identical. Identical values can stand only once. Like-named read-outs stand apart in the source and are kept apart here. Ends that are not written are not given here.
# Columns and labels:
# [1] = test system: PhTET2 and PhTET3; assay: Aminopeptidase cleavage of N-terminal amino acids during dynamic sequencing (RS/NRS durations); type: biochemical, P. horikoshii
# Method: To evaluate the kinetic principles of the dynamic sequencing method when applied to diverse sequences, the synthetic peptide DQQRLIFAG (SEQ ID NO: 794), corresponding to a segment of human ubiquitin, was characterized (FIGS. 3A-3D). Sequencing reactions were performed using a combination of three differentially-labeled recognizers—PS610, PS961, and PS691—and two aminopeptidases—PhTET2 and PhTET3 (Materials and Methods). The example trace in FIG. 3A starts with an NRS that corresponds to the time interval during which residues in the initial DQQ motif are present at the N-terminus. The first RS starts at 120 min, upon exposure of N-terminal arginine to recognition by PS691. Subsequent cleavage events sequentially expose N-terminal leucine, isoleucine, and phenylalanine to their corresponding recognizers, with fast transitions (average <10 s) from one RS to the next. The transition from leucine to isoleucine recognition by PS961 is readily identified as a sharp change in average PD. This overall pattern is replicated across many instances of sequencing of the same peptide, with similar PD statistics across traces, as each peptide molecule follows the same reaction pathway over the course of the sequencing run (FIGS. 3B-3C).
# The distribution of RS durations across an ensemble of replicate traces defines the rate of cleavage of each recognizable NAA. […] The distribution of NRS durations reports the cleavage rate of a run of one or more non-recognized NAAs. The average NRS duration for the initial DQQ motif was 153 min (FIG. 3D). Average cleavage rates are a key parameter and are controlled by the aminopeptidase concentration in the assay (FIGS. 8D-8E). Given the exponential behavior, average RS durations of 10 to 40 min were targeted to provide sufficient time for pulsing data collection, avoid missed RSs due to rapid cleavage, and minimize excessively long RS durations. It was found helpful to visualize the sequencing profiles of peptides as kinetic signature plots—simplified trace-like representations of the time course of complete peptide sequencing containing the median PD for each RS, and the average duration of each RS and NRS (FIG. 3E). These highly characteristic features provide a wealth of sequence-dependent information for mapping traces from peptides to their proteins of origin.
# A second chip check was then performed. […] Data was recorded for 15 min.
# [2] = test system: amino acid recognizers; assay: Sequencing of β-amyloid wild type and variant peptides, average pulse width; type: binding; settings: for Average Pulse Width, tripeptide LVX: when sequencing L
# Source text: Aspects of the technology described herein may be used for protein preparation, peptide library preparation, peptide sequencing and peptide profiling of synthetic samples of ß-amyloid. In this example, the wild type (LVFFAE (SEQ ID NO: 827)) and variants (17LVFFAK22 (SEQ ID NO: 828), 17LVFFGK22 (SEQ ID NO: 829), 17LVFFAG22 (SEQ ID NO: 830), and 17LVPFAE22 (SEQ ID NO: 831)) of β-amyloid were digested and labeled for further analysis. Alternatively, β-amyloid may be purified from common sources, such as cerebrospinal fluid (CSF), for downstream analysis.
# A chip including aspects of the technology described herein was used for the downstream sequencing of the sample material. The chip contained millions of wells, each of which acted as an independent sequencing machine. Once the sample was loaded, cloud technology was used to set up the sequencing run and collect all the data for visualization. Once collected in the cloud, a set of proprietary algorithms, which can identify amino acids based on the specialized optical pulse patterns of each binding event, determined the sequence of the peptide and mapped that sequence back to a specific protein or protein variant.
# Here, the protein sequencing technology and analysis pipeline was successfully used to distinguish a variety of clinically significant ß-amyloid point mutations. The sequencing traces containing pulse patterns of the variants, 17LVFFAK22 (SEQ ID NO: 828), 17LVFFGK22 (SEQ ID NO: 829), 17LVFFAG22 (SEQ ID NO: 830), and 17LVPFAE22 (SEQ ID NO: 831), were compared to the wild type, 17LVFFAE22 (SEQ ID NO: 827). Software automatically identified pulses containing the same intensity, lifetime, and kinetics, which determined a recognition segment for a specific amino acid. Each recognition segment was color coded based on the N-terminal amino acid, and the collection of recognition segments provided a characteristic signature of the peptide.
# Time domain sequencing functionality can observe sequence changes indirectly during peptide profiling. The specific PTMs and folding of each variant cause them to display distinctly different patterns, which can then be inferred via alterations in pulse width. For example, a point mutation in a sequence—at the N-terminal end, or at the penultimate and antepenultimate positions, of the peptide—can generate an altered pulse pattern, compared to another sequence.
# [3] = test system: PS610; assay: Dynamic single-molecule sequencing, recognition by PS610; type: binding, A. tumefaciens; settings: peptide LAQFASIAAYASDDD, PS610 and PS961, PhTET2 and PhTET3
# Method: The semiconductor chip was placed in the sequencing device and a chip check was performed to test electronic circuit function and to optimize laser coupling alignment. The chip was then removed from the device socket and the chip was washed twice with 50 μL of 70% isopropanol, followed by four washes with 30 μL of wash buffer (50 mM MOPS pH 8.0, 60 mM potassium acetate, 50 mM glucose, 20 mM magnesium acetate, and surfactant mix) through a flow cell attached to the chip. A second chip check was then performed. […] The chip was then washed six times with wash buffer, followed by addition of an imaging solution (wash buffer with 5 mM Trolox and an oxygen scavenging system). The laser was unblocked and the occupancy percentage (target 10-30%, Poisson distributed) was recorded by acquiring a photobleaching signal from a fluorophore attached to the peptide complex during 5 min of laser illumination. […] The laser was then blocked briefly and aminopeptidases were added to the sequencing reaction via the flow cell and mixed thoroughly (final concentration 2-8 μM PhTET2 and/or 20-80 μM PhTET3, as indicated according to the experiment). The laser was then unblocked, and data was recorded for 10 hours. For all runs, 30 μL of mineral oil was added to fluid reservoirs at each port of the flow cell to prevent evaporation during the run.
# (§1) The measured signal on-chip comprises various noise components, the most dominant one being due to fluorescent emissions from diffusing recognizers in the reaction chamber. The pulse caller algorithm for a given reaction chamber starts by estimating the statistical properties of this background noise component. Once an estimate within certain error bounds has been established, the algorithm works in an online fashion observing new frames of data as they are generated. At each point in time, the algorithm maintains state indicating whether the signal is due to the background component only or a pulse from a recognizer-NAA interaction is being observed. The state transition from background to pulse is triggered using an edge detection test where the shift in signal is expected to be significant with respect to the background component's statistical distribution. The state transition from pulse to background is triggered when a small window of the most recent frames of the signal appears to conform to the background component's distribution again. The algorithm maintains an updated model of the background component as new background frames are observed. This provides robustness against drift in the signal intensity together with a feedback control loop that maintains a stable optical coupling of the laser into the chip based on any such detected drift. As detected pulses can be due to true recognizer-to-dipeptide interaction events as well as other occasional transient noise spikes, a downstream filter layer is employed to test the significance of pulse events based on their duration, intensity, and noise patterns within the context of the full timeline of the run and the entire dataset of reaction chambers.
# Initial regions are determined by performing a sliding window calculation of pulse rate along the time dimension of a series of pulses. Regions with a mean pulse rate >1 pulse/min are then subdivided according to a greedy bisection approach. Here, the pulses on the left and right of each potential split are assessed for statistically significant deviation in any of four separate pulse properties—intensity, bin ratio, pulse duration, and interpulse duration—using a Mann-Whitney U Test. To define RSs, the split point with the lowest p-value for any of the four properties is used to sub-divide the region and the process continues until no regions remain with a candidate split point with p-value <10^−5 in any comparison. In this manner, transitions from one RS to the next in a region of continuous pulsing are determined a priori on the basis of changes in fluorescence properties of pulsing kinetics.
# [4] = test system: PS961; assay: Dynamic single-molecule sequencing, recognition by PS961; type: binding, Planctomycetes; settings: for Median PD, recognition of N-terminal leucine by PS961: peptides RLAFAYPDDD, RLIFAYPDDD, RLVFAYPDDD; for RS mean PD, N-terminal leucine by PS961 / RS mean duration for leucine recognition: leucine followed by threonine or phosphothreonine
# Method: The semiconductor chip was placed in the sequencing device and a chip check was performed to test electronic circuit function and to optimize laser coupling alignment. The chip was then removed from the device socket and the chip was washed twice with 50 μL of 70% isopropanol, followed by four washes with 30 μL of wash buffer (50 mM MOPS pH 8.0, 60 mM potassium acetate, 50 mM glucose, 20 mM magnesium acetate, and surfactant mix) through a flow cell attached to the chip. A second chip check was then performed. The laser was then blocked via an integrated software-controlled shutter, peptide complex was added to a final concentration of 1-10 nM and mixed thoroughly, and the chip was incubated for 15 min. The chip was then washed six times with wash buffer, followed by addition of an imaging solution (wash buffer with 5 mM Trolox and an oxygen scavenging system). The laser was unblocked and the occupancy percentage (target 10-30%, Poisson distributed) was recorded by acquiring a photobleaching signal from a fluorophore attached to the peptide complex during 5 min of laser illumination. For NAA recognition-only assays, after peptide loading, labeled recognizer was added to a final concentration of 50 nM PS610, 100 nM PS691, or 250 nM PS961 (as indicated according to the experiment), and data was recorded for 10 hours. For dynamic sequencing assays, after peptide loading, a mixture of labeled recognizers was added to obtain final concentrations of 50 nM PS610, 100 nM PS691, and 250 nM PS961. Data was recorded for 15 min. The laser was then blocked briefly and aminopeptidases were added to the sequencing reaction via the flow cell and mixed thoroughly (final concentration 2-8 μM PhTET2 and/or 20-80 μM PhTET3, as indicated according to the experiment). The laser was then unblocked, and data was recorded for 10 hours. For all runs, 30 μL of mineral oil was added to fluid reservoirs at each port of the flow cell to prevent evaporation during the run.
# as §1
# Initial regions are determined by performing a sliding window calculation of pulse rate along the time dimension of a series of pulses. Regions with a mean pulse rate >1 pulse/min are then subdivided according to a greedy bisection approach.
# [5] = RS duration across replicate traces
# Chain of PS961 (as listed by the source): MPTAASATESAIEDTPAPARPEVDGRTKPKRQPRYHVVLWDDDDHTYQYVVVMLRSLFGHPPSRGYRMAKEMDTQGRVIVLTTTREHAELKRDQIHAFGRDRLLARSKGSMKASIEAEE
substance,measurement,setting,value
DQQRLIFAG [synthetic peptide corresponding to a segment of human ubiquitin],Average NRS duration for the initial DQQ motif,[1],153 min
same,"Average cleavage time, N-terminal arginine",[1]; [5],31 min
same,"Average cleavage time, N-terminal isoleucine",[1]; [5],39 min
same,"Average cleavage time, N-terminal leucine",[1]; [5],54 min
same,"Average cleavage time, N-terminal phenylalanine",[1]; [5],86 min
"E22Q: β-amyloid variant, tripeptide FAQ (Amyloid-beta protein 42; UniProt P05067 691-693, looked up, fragment E22Q) [Peptide E22Q]","Average Pulse Width, tripeptide FXX",[2],2.67 (FAQ) seconds
LAQFASIAAYASDDD,Median PD,[3]; listed as FAS,1.43 s
same,Median PD,[3]; listed as YAS,0.66 s
same,Median PD,"[4]; peptide LAQFASIAAYASDDD, PS610 and PS961, PhTET2 and PhTET3",2.70 s
"LVFFAE [WT, β-amyloid wild type]","Average Pulse Width, tripeptide FXX",[2],2.43 (FAE) seconds
same,"Average Pulse Width, tripeptide FXX",[2]; listed as wild type,2.43 s
same,"Average Pulse Width, tripeptide LVX",[2],3.26 (LVF) seconds
same,"Average Pulse Width, tripeptide LVX",[2]; listed as wild type,3.26 s
"LVFFAG [Peptide E22G, β-amyloid variant]","Average Pulse Width, tripeptide FXX",[2],2.99 (FAG) seconds
"LVFFAK [Peptide E22K, β-amyloid variant]","Average Pulse Width, tripeptide FXX",[2],2.79 (FAK) seconds
"LVPFAE [Peptide F19P, β-amyloid variant]","Average Pulse Width, tripeptide LVX",[2],1.86 seconds and 1.86 (LVP) seconds
RLAFAYPDDD,"Median PD, recognition of N-terminal leucine by PS961",[4],1.29 s
RLIFAYPDDD,"Median PD, recognition of N-terminal leucine by PS961",[4],2.22 s
"RLMFAYPDDD (not fully specified (residue 3, C-terminus); also: all synthetic peptides contained C-terminal Fmoc-azidolysine)","Median PD of leucine recognition, first population of traces",[4]; leucine followed by methionine (LM),0.86 s
same,"Median PD of leucine recognition, second population of traces","[4]; methionine not recognized, oxidized (LMo)",0.35 s
"RLTFIAYPDDD (not fully specified (residue 3, C-terminus); also: all synthetic peptides contained C-terminal Fmoc-azidolysine)","RS mean PD, N-terminal leucine by PS961",[4],1.2 s
same,RS mean duration for leucine recognition,[4],8.1 min
RLVFAYPDDD,"Median PD, recognition of N-terminal leucine by PS961",[4],4.21 s
RLpTFIAYPDDD,"RS mean PD, N-terminal leucine by PS961",[4],0.3 s
same,RS mean duration for leucine recognition,[4],130 min
